This is an account of results in paper PMC4548311 (Journal of Biomolecular Structure & Dynamics, 2014).

For experiment [1], the target named is monomeric wt NP (nucleoprotein of influenza A virus) (Influenza A virus, UniProt P15682). The experiment can be described thus: biochemical. It counts as binding.
For experiment [2], the target named is wt NP (Influenza A virus, UniProt P15682). It counts as biochemical.
The subject of experiment [3] is wt NP. It counts as biochemical.
Another experiment relates to influenza A virus. The following applies: mouse, in vivo; cited from earlier work.

Sequence of wt NP (Influenza A virus, UniProt P15682) (P15682 whole entry, looked up): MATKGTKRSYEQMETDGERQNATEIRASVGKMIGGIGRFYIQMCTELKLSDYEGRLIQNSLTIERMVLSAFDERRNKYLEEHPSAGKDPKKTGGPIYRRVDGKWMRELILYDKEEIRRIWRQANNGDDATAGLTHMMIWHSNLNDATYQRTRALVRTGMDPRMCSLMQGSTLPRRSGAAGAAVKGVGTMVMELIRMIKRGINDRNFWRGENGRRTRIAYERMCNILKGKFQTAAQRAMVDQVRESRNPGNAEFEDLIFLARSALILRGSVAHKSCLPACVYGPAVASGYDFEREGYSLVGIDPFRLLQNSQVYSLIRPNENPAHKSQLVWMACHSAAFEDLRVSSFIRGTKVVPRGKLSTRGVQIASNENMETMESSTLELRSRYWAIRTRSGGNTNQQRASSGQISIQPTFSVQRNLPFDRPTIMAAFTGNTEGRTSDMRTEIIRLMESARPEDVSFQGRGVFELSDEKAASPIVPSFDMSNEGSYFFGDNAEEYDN
Sequence of monomeric wt NP (nucleoprotein of influenza A virus) (P15682 whole entry, looked up): as above

`COc1ccc2cc([C@H](C)C(=O)O)ccc2c1` [Naproxen, naproxen]: the “% Total inhibition” value in experiment [1] was determined as 70 ± 7%. Also, the inhibition at 1 µM in experiment [1] (read-out: % Inhibition at 1 µM) was 5%. Besides, at wt NP [2], the “apparent size of the NP–RNA complex” value was 21–23 nm; the “effect on NP oligomerization into trimers–tetramers” value is “stabilized the monomeric form”; the “effect on RNA-free self-association of NP” value is “stabilized monomeric NP and avoided trimers/tetramers formation”; the “effect on dimer formation” value is reported as “impeded dimer formation”. In addition, the “disruption of already assembled trimers” value in the experiment with wt NP [3] was “could not disrupt already assembled trimers”. Further, in the experiment on influenza A virus, the “antiviral effects in mice” value is listed as “antiviral effects” and the lung bleeding result is “reduced lung bleeding”.

As usually defined, the inhibition is the drop in the measured response relative to a control, in per cent.
